These results are taken from PubChem BioAssay (NCI).

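Dose response: 5 concentrations. Exposure: 48 h. Format: 96-well plates. Endpoint: linear interpolation; highest concentration if not reached. Here, GI50 denotes the concentration required for 50% inhibition of growth. TGI denotes the concentration required for complete inhibition of growth.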

Holding throughout (experiment): NCI-60 cell line screen, 48 h
Assay [1] has as its system IGROV1 ovarian.
For assay [2], the system named is HOP-62 NSCLC.
Assay [3] relates to SF-268 CNS.
The subject of assay [4] is SK-MEL-5 melanoma.
The subject of assay [5] is T-47D breast.
In assay [6] the test system is U251 CNS.
The test system of assay [7] is OVCAR-3 ovarian.
In assay [8] the test system is HS 578T breast.
The test system of assay [9] is MDA-MB-231 breast.
Assay [10] relates to NCI-H226 lung.

Consider `COc1cc(C2=NOC(c3cc(OC)c(OC)c(OC)c3)C2)ccc1OCCCCOc1cc2c(cc1OC)C(=O)N1CCC[C@H]1C=N2` (stereo not given in full), for which the GI50 is 0.243 µM in [1]; 0.29 µM in assay [2]; 0.4 µM in assay [3]; 0.168 µM in assay [4]; 0.481 µM in [5]; 0.315 µM in [6]. Further, the GI50 was 0.322 µM in assay [7], 0.234 µM in assay [8] and 0.235 µM in [9]. Further, the TGI in assay [1] was 0.537 µM; in assay [2], 0.709 µM; in assay [3], 5.68 µM; in assay [4], 0.319 µM; in assay [6], 1.1 µM; in assay [7] it was 2.51 µM. Moreover, the values for the TGI in assay [8] and in [9] were 0.681 µM and 0.75 µM, respectively.

Turning to `CN1CCN(C)C12C=c1ccccc1=CC21CC1`, the TGI in assay [1] is over 100 µM; in assay [2], over 100 µM; in [3] it was over 77 µM; in assay [4], 51.1 µM; in assay [5], over 86.2 µM; in assay [6], over 82 µM. Further, the TGI is over 100 µM in assay [7], over 31.6 µM in assay [8], over 100 µM in assay [10] and over 100 µM in assay [9].

Take `Oc1ccc(NCc2nc3ccccc3[nH]2)cc1`: the GI50 in [1] was 76.4 µM; in [2] it was 22.4 µM; in assay [3] it was 35.3 µM; in [4], 72.4 µM; in assay [5] it was 31.2 µM; in [6], 28.2 µM. The GI50 was 33.8 µM in [7], 15 µM in assay [8], over 100 µM in [10] and 38.4 µM in [9]. In addition, the TGI in assay [1] is over 100 µM; in assay [2], 62.2 µM; in [3], over 100 µM; in assay [4], over 100 µM; in assay [5], over 100 µM; in assay [6] it was over 100 µM. Also, the TGI is over 100 µM in assay [7], 79.2 µM in assay [8], over 100 µM in assay [10] and over 100 µM in [9].

`NC(=O)c1ccc(I)c(N)c1`: the GI50 in assay [1], in assay [2], in assay [3], in assay [4], in assay [5] and in [6] was over 100 µM throughout. The GI50 in [7], in assay [8], in [10] and in assay [9] was over 100 µM in each case. In addition, the TGI in assay [1], in assay [2], in assay [3], in [4], in assay [5] and in assay [6] was over 100 µM each time. The TGI in [7], in [8], in [10] and in assay [9] was over 100 µM in each case.

As to `CCOc1cc2c(Cl)ncnc2c(OCC)c1OCC`, the GI50 in assay [1] was 1.6 µM; in [2], 15.5 µM; in assay [3] it was 2.84 µM; in [4] it was 3.8 µM; in assay [5], 6.11 µM; in [6] it was 7 µM. The GI50 in assay [7] is 4 µM; in assay [8], 2.07 µM; in [10], 12.7 µM; in [9], 11.9 µM. In addition, the TGI in assay [1] is 3.53 µM; in assay [2] it was 30.9 µM; in assay [3], 7.9 µM; in assay [4], 12.1 µM; in assay [5], 22.8 µM; in [6], 19.6 µM. Moreover, the TGI in assay [7] amounted to 10.8 µM; in assay [8], 5.45 µM; in assay [10] it was 33.3 µM; in [9], 24.9 µM.

Turning to `CS(=O)(=O)c1ccc([C@H]2O[C@@H](CO)C[C@]2(O)c2ccc(S(C)(=O)=O)cc2)cc1`, the GI50 in [1], in assay [2], in [3], in assay [4], in assay [6] and in assay [7] was over 100 µM each time. Besides, the GI50 in assay [8], in assay [10] and in [9] was over 100 µM throughout. Further, the TGI in assay [1], in assay [2], in assay [3], in [4], in assay [6] and in [7] was over 100 µM throughout. In addition, the TGI in assay [8], in [10] and in assay [9] was over 100 µM in each case.

In the case of `C=C1C(=O)O[C@H]2[C@H]1CC/C(COC(=O)c1ccc3ccccc3c1)=C\CC[C@@]1(C)O[C@@H]21`, the GI50 in assay [1] was 0.703 µM; in [2] it was 1.56 µM; in assay [3], 1.28 µM; in assay [4] it was 1.63 µM; in assay [5], 1.03 µM; in [6] it was 1.21 µM. The GI50 was 0.538 µM in [7], 1.53 µM in [8], 1.42 µM in assay [10] and 1.35 µM in assay [9]. Also, the TGI in assay [1] amounted to 2.19 µM; in assay [2], 2.97 µM; in assay [3] it was 2.75 µM; in assay [4] it was 3 µM; in assay [5] it was 2.73 µM; in assay [6] it was 2.5 µM. Further, the TGI in [7] came to 1.77 µM; in [8] it was 4.51 µM; in [10], 3.21 µM; in [9] it was 3 µM.

In the case of `Cn1c(=O)c2[nH]c(SCc3ccccn3)nc2n(C)c1=S`, the TGI in assay [1], in [2], in assay [3], in [4], in assay [5] and in [6] was over 100 µM each time. Besides, the TGI in assay [7], in [8], in [10] and in assay [9] was over 100 µM throughout.
